Results reported in ChEMBL document CHEMBL5321279 (J Med Chem, 2023).
Activity calls are given as the source filed them. The calls are words filed in the database; no cut-off is given here.

Columns and labels:
[1] = (§1) Cytotoxicity against quiescent human PBMC cells assessed as reduction in cell growth measured after 5 days by CellTiter-Glo assay; format: toxicity, cell-based; settings: quiescent PBMC, time 5 day
[2] = (§2) Cytotoxicity against human primary hepatocytes assessed as reduction in cell growth measured after 5 days by CellTiter-Glo assay; format: toxicity, cell-based, Hepatocyte; settings: primary hepatocytes, time 5 day
[3] = Cmax in African green monkey infected with SARS-CoV-2 assessed as prodrug conversion by measuring (2R,3R,4S,5R)-2-(4-aminopyrrolo[2,1-f][1,2,4]triazin-7-yl)-3,4-dihydroxy-5-(hydroxymethyl)tetrahydrofuran-2-carbonitrile at 10 mg/kg, iv qd administered for day 1 followed by 5 mg/kg administration measured after 6 days by LC-MS/MS analysis; format: ADME, organism-based, Severe acute respiratory syndrome coronavirus 2; parameters: dose 10 mg/kg, time 6 day, route iv; settings: in vivo
[4] = Prodrug conversion in African green monkey assessed as Nucleotide triphosphate metabolite formation in lung at 20 mg/kg, iv measured upto 24 hrs by LC-MS/MS analysis; format: ADME, organism-based; settings: chlorocebus aethiops, in vivo
[5] = AUC(0 to 24 hrs) in African green monkey at 5 mg/kg, po measured upto 24 hrs by LC-MS/MS analysis; format: ADME, organism-based; parameters: time < 24 hrs, dose 5 mg/kg, route po; settings: chlorocebus sabaeus, in vivo
[6] = system: SARS-CoV-2; test: Antiviral activity against SARS-CoV-2 infected in African green monkey assessed as reduction in viral genomic RNA load in throat swabs at 60 to 120 mg/kg, po qd administered for 1 day starting from 8 hrs post infection by RT-qPCR analysis; format: functional, organism-based; settings: Severe acute respiratory syndrome coronavirus 2, dose lower 60.0 mg/kg, dose upper […]
[7] = Oral bioavailability in rat assessed as prodrug conversion by measuring (2R,3R,4S,5R)-2-(4-aminopyrrolo[2,1-f][1,2,4]triazin-7-yl)-3,4-dihydroxy-5-(hydroxymethyl)tetrahydrofuran-2-carbonitrile at 6 mg/kg administered in solid form measured upto 24 hrs by LC-MS/MS analysis; format: ADME, organism-based; settings: in vivo
[8] = Stability of compound in human plasma assessed as half life measured upto 4 hrs by LC-MS/MS analysis; format: ADME, cell-free
[9] = Stability of compound in human liver S9 fraction assessed as half life at pH 7.4 measured upto 90 mins by LC-MS/MS analysis; format: ADME, subcellular
[10] = system: SARS-CoV-2; test: Antiviral activity against SARS-CoV-2 infected in African green monkey assessed as reduction in viral titer in terminal respiratory tissue at 60 to 120 mg/kg, po qd administered for 6 days starting from 8 hrs post infection by PFA assay; format: functional, organism-based; settings: Severe acute respiratory syndrome coronavirus 2, dose lower 60.0 mg/kg, dose upper […], time 6.0 day
[11] = Stability of compound in cynomolgus monkey gastrointestinal S9 fraction assessed as half life at pH 7.4 measured upto 120 mins by LC-MS/MS analysis; format: ADME, subcellular, Macaca fascicularis, Gastrointestinal tract
[12] = Oral bioavailability in African green monkey assessed as prodrug conversion by measuring (2R,3R,4S,5R)-2-(4-aminopyrrolo[2,1-f][1,2,4]triazin-7-yl)-3,4-dihydroxy-5-(hydroxymethyl)tetrahydrofuran-2-carbonitrile at 60 mg/kg measured upto 24 hrs by LC-MS/MS analysis; format: ADME, organism-based; settings: chlorocebus sabaeus, in vivo
[13] = Stability of compound in dog liver S9 fraction assessed as half life at pH 7.4 measured upto 90 mins by LC-MS/MS analysis; format: ADME, subcellular, Canis lupus familiaris
[14] = AUC(0 to 24 hrs) in cynomolgus monkey at 11.7 mg/kg, po measured upto 24 hrs by LC-MS/MS analysis; format: ADME, organism-based, Macaca fascicularis; parameters: dose 11.7 mg/kg, time < 24 hrs, route po; settings: in vivo
[15] = AUC(0 to 24 hrs) in African green monkey at […], po measured upto 24 hrs by LC-MS/MS analysis; format: ADME, organism-based; settings: chlorocebus sabaeus, in vivo
[16] = Stability of compound in cynomolgus monkey liver S9 fraction assessed as half life at pH 7.4 measured upto 90 mins by LC-MS/MS analysis; format: ADME, subcellular, Macaca fascicularis
[17] = AUC(0 to 24 hrs) in cynomolgus monkey assessed as prodrug conversion by measuring (2R,3R,4S,5R)-2-(4-aminopyrrolo[2,1-f][1,2,4]triazin-7-yl)-3,4-dihydroxy-5-(hydroxymethyl)tetrahydrofuran-2-carbonitrile at 11.7 mg/kg, po measured upto 24 hrs by LC-MS/MS analysis; format: ADME, organism-based, Macaca fascicularis; parameters: dose 11.7 mg/kg, time < 24 hrs, route po; settings: in vivo
[18] = system: PBMC; test: as §1; format: toxicity, cell-based; settings: pbmc, 120 h, time 5 day
[19] = system: SARS-CoV-2; test: Antiviral activity against SARS-CoV-2 infected in African green monkey assessed as reduction in viral genomic RNA load in throat swabs at 60 to 120 mg/kg, po qd administered for 6 days starting from 8 hrs post infection by RT-qPCR analysis; format: functional, organism-based; settings: Severe acute respiratory syndrome coronavirus 2, dose lower 60.0 mg/kg, dose upper […], time 6.0 day
[20] = Drug metabolism in human NHBE-T cells assessed as Nucleotide triphosphate metabolite formation at 10 uM measured after 48 hrs by LC-MS analysis; format: ADME, cell-based
[21] = Cmax in rat assessed as prodrug conversion by measuring (2R,3R,4S,5R)-2-(4-aminopyrrolo[2,1-f][1,2,4]triazin-7-yl)-3,4-dihydroxy-5-(hydroxymethyl)tetrahydrofuran-2-carbonitrile at 6 mg/kg, po measured upto 24 hrs by LC-MS/MS analysis; format: ADME, organism-based; parameters: dose 6 mg/kg, time < 24 hrs, route po; settings: in vivo
[22] = system: Hepatocyte; test: as §2; format: toxicity, cell-based; settings: hepatocytes, 120 h, time 5 day
[23] = Stability of compound in rat plasma assessed as half life measured upto 4 hrs by LC-MS/MS analysis; format: ADME, cell-free
[24] = Oral bioavailability in African green monkey assessed as prodrug conversion by measuring (2R,3R,4S,5R)-2-(4-aminopyrrolo[2,1-f][1,2,4]triazin-7-yl)-3,4-dihydroxy-5-(hydroxymethyl)tetrahydrofuran-2-carbonitrile at 86.5 mg/kg measured upto 24 hrs by LC-MS/MS analysis; format: ADME, organism-based; settings: chlorocebus sabaeus, in vivo
[25] = Stability of compound in rat liver S9 fraction assessed as half life at pH 7.4 measured upto 90 mins by LC-MS/MS analysis; format: ADME, subcellular
[26] = system: SARS-CoV-2; test: Antiviral activity against SARS-CoV-2 infected in African green monkey assessed as reduction in viral load in BALF at 120 mg/kg, po qd administered for 6 days starting from 8 hrs post infection by PFA assay; format: functional, organism-based; settings: Severe acute respiratory syndrome coronavirus 2, time 6.0 day
[27] = Stability of compound in dog gastrointestinal S9 fraction assessed as half life at pH 7.4 measured upto 120 mins by LC-MS/MS analysis; format: ADME, subcellular, Canis lupus familiaris, Gastrointestinal tract
[28] = system: SARS-CoV-2; test: Antiviral activity against SARS-CoV-2 infected in African green monkey assessed as reduction in viral genomic RNA load in nasal swabs at 60 to 120 mg/kg, po qd administered for 4 days starting from 8 hrs post infection by RT-qPCR analysis; format: functional, organism-based; settings: Severe acute respiratory syndrome coronavirus 2, dose lower 60.0 mg/kg, dose upper […], time 4.0 day
[29] = Stability of compound in cynomolgus monkey plasma assessed as half life measured upto 4 hrs by LC-MS/MS analysis; format: ADME, cell-free, Macaca fascicularis
[30] = Cmax in African green monkey assessed as prodrug conversion by measuring (2R,3R,4S,5R)-2-(4-aminopyrrolo[2,1-f][1,2,4]triazin-7-yl)-3,4-dihydroxy-5-(hydroxymethyl)tetrahydrofuran-2-carbonitrile at 60 mg/kg, po measured upto 24 hrs by LC-MS/MS analysis; format: ADME, organism-based; parameters: dose 60 mg/kg, time < 24 hrs, route po; settings: chlorocebus sabaeus, in vivo
[31] = Cmax in African green monkey infected with SARS-CoV-2 assessed as prodrug conversion by measuring (2R,3R,4S,5R)-2-(4-aminopyrrolo[2,1-f][1,2,4]triazin-7-yl)-3,4-dihydroxy-5-(hydroxymethyl)tetrahydrofuran-2-carbonitrile at 60 mg/kg, po qd measured after 6 days by LC-MS/MS analysis; format: ADME, organism-based, Severe acute respiratory syndrome coronavirus 2; parameters: dose 60 mg/kg, time 6 day, route po; settings: in vivo
[32] = system: SARS-CoV-2; test: Antiviral activity against SARS-CoV-2 infected in African green monkey assessed as reduction in viral titer in throat swabs at 60 to 120 mg/kg, po qd administered for 6 days starting from 8 hrs post infection by PFA assay; format: functional, organism-based; settings: Severe acute respiratory syndrome coronavirus 2, dose lower 60.0 mg/kg, dose upper […], time 6.0 day

Work on CCC(CC)COC(=O)[C@H](C)N[P@](=O)(OC[C@H]1O[C@@](C#N)(c2ccc3c(N)ncnn23)[C@H](O)[C@@H]1O)Oc1ccccc1 yielded a CC50 at 120 h [1] greater than 20 µM, a CC50 at 120 h [2] of 2.5 µM and a Cmax [3] of 1.23 µM.
In the case of N#C[C@@]1(c2ccc3c(N)ncnn23)O[C@H](CO)[C@@H](O)[C@H]1O [GS-441524], the Drug metabolism [4] is reported as 0.23 nmol/g and the AUC [5] is reported as 3.15 µM·h.
With CC(C)C(=O)OC[C@H]1O[C@@](C#N)(c2ccc3c(N)ncnn23)[C@H](O)[C@@H]1O [OBELDESIVIR] the Activity [6] was “Active”, the F [7] was 90% and the half-life [8] was 29 min. For the same compound, the half-life at […] [9] was less than 2 min, the Activity [10] was “Active” and the half-life [11] was less than 2 min. The F [12] was 36%, the half-life at […] [13] was 4.3 min and the AUC [14] was 0.01 µM·h. For the same compound, the AUC [15] was 0.02 µM·h, the half-life at […] [16] was less than 2 min and the AUC [17] was 21.6 µM·h. For the same compound, the CC50 [18] was greater than 100 µM, the Activity [19] was “Active” and the Drug metabolism [20] was “Metabolite_Detected”. It also gave a Cmax [21] of 2.1 µM, a CC50 [22] greater than 100 µM and a half-life [23] of less than 3 min. For the same compound, the F [24] was 27%, the half-life at […] [25] was less than 2 min and the Activity [26] was “Active”. The half-life [27] was less than 2 min, the Activity [28] was “Active” and the half-life [29] was 9.7 min. For the same compound, the Cmax [30] was 22.5 µM, the Cmax [31] was 21 µM and the Activity [32] was “Active”.
